Experimental data: PubChem BioAssay AID248 (DTP/NCI, 2004)
Toxic doses and inconclusive results are not listed. Cut-off read from the data, not from the text of the source: active = T/C of 150% or more; inactive = T/C below 125%.

Test system: L1210 leukemia ip in BDF1 mice, survival T/C
Assay: NCI In Vivo Anticancer Drug Screen. Data for tumor model L1210 Leukemia (intraperitoneal) in B6D2F1 (BDF1) mice
Conditions: endpoint: mean survival time, higher = longer survival
Summary of the method: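 Ratio derived from survival: compound-dosed mice over vehicle-dosed mice, all bearing a transplantable tumor.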

[1] = dose: 100.0 mg/kg/injection, schedule: Q01DX009 (ip), vehicle: Klucel (hydroxypropylcellulose) (HPC)
[2] = dose: 200.0 mg/kg/injection, schedule: Q01DX009 (ip), vehicle: Klucel (hydroxypropylcellulose) (HPC)
[3] = dose: 100.0 mg/kg/injection, schedule: Q04DX003 (ip), vehicle: other
[4] = dose: 200.0 mg/kg/injection, schedule: Q04DX003 (ip), vehicle: other
[5] = dose: 400.0 mg/kg/injection, schedule: Q01DX009 (ip), vehicle: Klucel (hydroxypropylcellulose) (HPC)
[6] = dose: 400.0 mg/kg/injection, schedule: Q04DX003 (ip), vehicle: other
[7] = dose: 100.0 mg/kg/injection, schedule: Q04DX003 (ip), vehicle: Klucel (hydroxypropylcellulose) (HPC)
[8] = dose: 100.0 mg/kg/injection, schedule: Q04DX003 (ip), vehicle: saline
[9] = dose: 200.0 mg/kg/injection, schedule: Q04DX003 (ip), vehicle: Klucel (hydroxypropylcellulose) (HPC)
[10] = dose: 400.0 mg/kg/injection, schedule: Q04DX003 (ip), vehicle: Klucel (hydroxypropylcellulose) (HPC)

Measured: T/C

O=C1c2cccc3cccc(c23)C(=O)N1CCc1ccccn1
inactive: [1] 91 % of control | [2] 92 % of control

CC(C)(C)C(N)=O
inactive: [1] 92 % of control | [3] 94 % of control | [2] 90 % of control | [4] 98 % of control | [5] 95 % of control | [6] 98 % of control

BrC1(Br)CC1(c1ccccc1)c1ccccc1
inactive: [1] 93 % of control | [7] 107 % of control | [8] 107 % of control | [2] 97 % of control | [9] 107 % of control | dose: 200.0 mg/kg/injection, schedule: Q04DX003 (ip), vehicle: saline 107 % of control | [5] 101 % of control | [10] 97 % of control | dose: 400.0 mg/kg/injection, schedule: Q04DX003 (ip), vehicle: saline 97 % of control

Cn1c2ccccc2c2nn3cnnc3nc21
inactive: dose: 100.0 mg/kg/injection, schedule: Q04DX002 (ip), vehicle: saline with Tween-80 108 % of control | dose: 200.0 mg/kg/injection, schedule: Q04DX002 (ip), vehicle: saline with Tween-80 120 % of control

Cc1ccc(-c2ccc3sc(C)[n+](C)c3c2)cc1
inactive: [8] 92 % of control

CCOC(=O)Nc1cccc([N+](=O)[O-])c1
inactive: [3] 93 % of control | [4] 102 % of control | [6] 91 % of control

COC(=O)c1cccc(C)c1C(=O)c1ccccc1
inactive: [1] 104 % of control | [7] 101 % of control | [2] 96 % of control | [9] 101 % of control | [5] 98 % of control | [10] 95 % of control

CN(C)S(=O)(=O)c1ccc(NC(=O)OC(c2ccccc2)c2ccccc2)cc1
inactive: dose: 100.0 mg/kg/injection, schedule: Q01DX001 (ip), vehicle: saline 91 % of control | dose: 200.0 mg/kg/injection, schedule: Q01DX001 (ip), vehicle: saline 102 % of control | dose: 400.0 mg/kg/injection, schedule: Q01DX001 (ip), vehicle: saline 91 % of control

c1ccc(NNCC[P+](c2ccccc2)(c2ccccc2)c2ccccc2)cc1
inactive: dose: 15.0 mg/kg/injection, schedule: Q01DX001 (ip), vehicle: carboxymethylcellulose (CMC) 91 % of control

O=C(O)CCSCCC(=O)O
inactive: dose: 75.0 mg/kg/injection, schedule: Q01DX009 (ip), vehicle: Klucel (hydroxypropylcellulose) (HPC) 92 % of control | dose: 75.0 mg/kg/injection, schedule: Q04DX003 (ip), vehicle: saline 100 % of control | dose: 150.0 mg/kg/injection, schedule: Q01DX009 (ip), vehicle: Klucel (hydroxypropylcellulose) (HPC) 92 % of control | dose: 150.0 mg/kg/injection, schedule: Q04DX003 (ip), vehicle: saline 100 % of control | dose: 300.0 mg/kg/injection, schedule: Q01DX009 (ip), vehicle: Klucel (hydroxypropylcellulose) (HPC) 94 % of control | dose: 300.0 mg/kg/injection, schedule: Q04DX003 (ip), vehicle: saline 102 % of control

CC/C(=N\N=C(N)N)c1ccc(NC(N)=S)cc1
inactive: dose: 5.0 mg/kg/injection, schedule: Q01DX009 (ip), vehicle: saline 100 % of control | dose: 10.0 mg/kg/injection, schedule: Q01DX009 (ip), vehicle: saline 105 % of control | dose: 20.0 mg/kg/injection, schedule: Q01DX009 (ip), vehicle: saline 107 % of control | dose: 25.0 mg/kg/injection, schedule: Q01DX009 (ip), vehicle: saline 107 % of control | dose: 40.0 mg/kg/injection, schedule: Q01DX009 (ip), vehicle: saline 103 % of control | dose: 80.0 mg/kg/injection, schedule: Q01DX009 (ip), vehicle: saline 117 % of control

O=C1c2cccc3c(Br)ccc(c23)C(=O)N1C1CCCCCCCCCCC1
inactive: dose: 100.0 mg/kg/injection, schedule: Q01DX009 (ip), vehicle: saline with Tween-80 97 % of control | dose: 200.0 mg/kg/injection, schedule: Q01DX009 (ip), vehicle: saline with Tween-80 90 % of control
